Experimental data: article PMC5161541 (Nuclear medicine and biology, 2016)
Read-outs that look alike come from different tables or passages of the source.

Columns and labels:
[1] = molecular target: sites labeled by [125I]-E-IA-BF-PIPZE (σ1 receptors) (Mus musculus, UniProt O55242); assay type: binding
σ1 receptors [2] = molecular target: T1, σ1 receptors (Mus musculus, UniProt O55242); settings: 100 μmol / kg, i.p.; cited from earlier work
σ1 receptors [3] = molecular target: T1, σ1 receptors; assay: In vivo specific binding and blocking by pretreatment with σ receptor ligands; settings: for adverse effects or abnormal behaviors: mice
σ1 receptors [4] = molecular target: T1, σ1 receptors; assay: Regional brain distribution with blocking pretreatments; assay type: in vivo, CD-1 mouse; settings: 2.5 μmol / kg i.v., 60 min, nine regions
SERT = SERT (Mus musculus, UniProt Q60857); assay: Secondary site spot test, [3H]-Paroxetine; assay type: binding
NET = NET (Mus musculus, UniProt O55192); assay: Secondary site spot test, [3H]-Nisoxetine; assay type: binding
[5] = molecular target: Kappa (κ) opioid receptor (Cavia porcellus, UniProt P41144); assay: Secondary site spot test, [3H]-U69593; assay type: binding, guinea pig
[6] = molecular target: Delta (δ) opioid receptor (Mus musculus, UniProt P32300); assay: Secondary site spot test, [3H]-Naltrindole; assay type: binding
σ2 receptors = molecular target: T2, σ2 receptors (Mus musculus, UniProt Q8VD00); assay: Competition binding against [3H]-DTG with PTZ mask in mouse brain membranes
T2 sequence (Q8VD00 1-176): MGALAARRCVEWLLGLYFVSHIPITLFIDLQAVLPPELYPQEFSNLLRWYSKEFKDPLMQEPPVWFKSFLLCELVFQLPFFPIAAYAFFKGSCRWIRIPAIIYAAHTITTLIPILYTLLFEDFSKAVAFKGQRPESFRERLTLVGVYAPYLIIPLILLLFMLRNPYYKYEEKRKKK

Mu (μ) opioid receptor = Mu (μ) opioid receptor (Cavia porcellus, UniProt A0ACM8Q262); assay: Secondary site spot test, [3H]-DAMGO; assay type: binding, guinea pig
DAT = DAT (Mus musculus, UniProt Q61327); assay: Secondary site spot test, [125I]-RTI-121; assay type: binding
σ1 receptors [7] = molecular target: T1, σ1 receptors; assay: Competition binding against [3H]-PTZ in mouse brain membranes
[8] = 0.1 nM [125I]-E-IA-BF-PIPZE, 37 °C, 180 min, means ± SEM (n = 3 – 6)
[9] = Cheng-Prusoff, 0.1 nM [125I]-E-IA-BF-PIPZE, means ± SEM (n = 3 – 6)

Sequence of sites labeled by [125I]-E-IA-BF-PIPZE (σ1 receptors) (O55242 whole entry): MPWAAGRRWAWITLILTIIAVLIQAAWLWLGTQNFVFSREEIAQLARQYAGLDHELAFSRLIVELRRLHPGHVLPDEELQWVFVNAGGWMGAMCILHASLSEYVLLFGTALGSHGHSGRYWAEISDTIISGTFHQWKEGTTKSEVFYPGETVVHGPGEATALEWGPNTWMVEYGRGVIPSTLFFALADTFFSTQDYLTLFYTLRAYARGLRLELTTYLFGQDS
T1 sequence (O55242 whole entry): as above
Sequence of SERT (Q60857 whole entry): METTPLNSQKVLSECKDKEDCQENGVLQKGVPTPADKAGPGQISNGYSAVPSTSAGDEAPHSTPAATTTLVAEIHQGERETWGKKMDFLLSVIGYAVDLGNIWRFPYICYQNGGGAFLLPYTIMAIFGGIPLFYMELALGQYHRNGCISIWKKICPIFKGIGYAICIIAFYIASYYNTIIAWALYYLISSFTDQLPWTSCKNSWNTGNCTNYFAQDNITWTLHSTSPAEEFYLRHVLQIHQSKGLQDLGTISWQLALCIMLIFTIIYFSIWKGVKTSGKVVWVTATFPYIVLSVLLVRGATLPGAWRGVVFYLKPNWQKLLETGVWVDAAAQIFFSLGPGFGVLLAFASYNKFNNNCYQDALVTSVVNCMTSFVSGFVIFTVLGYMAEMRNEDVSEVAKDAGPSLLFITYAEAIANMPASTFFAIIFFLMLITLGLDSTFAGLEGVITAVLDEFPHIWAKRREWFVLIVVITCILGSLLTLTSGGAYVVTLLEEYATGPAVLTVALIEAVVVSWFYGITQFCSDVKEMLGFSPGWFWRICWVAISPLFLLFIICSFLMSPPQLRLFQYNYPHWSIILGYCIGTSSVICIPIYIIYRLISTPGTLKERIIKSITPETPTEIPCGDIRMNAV
Sequence of NET (O55192 whole entry): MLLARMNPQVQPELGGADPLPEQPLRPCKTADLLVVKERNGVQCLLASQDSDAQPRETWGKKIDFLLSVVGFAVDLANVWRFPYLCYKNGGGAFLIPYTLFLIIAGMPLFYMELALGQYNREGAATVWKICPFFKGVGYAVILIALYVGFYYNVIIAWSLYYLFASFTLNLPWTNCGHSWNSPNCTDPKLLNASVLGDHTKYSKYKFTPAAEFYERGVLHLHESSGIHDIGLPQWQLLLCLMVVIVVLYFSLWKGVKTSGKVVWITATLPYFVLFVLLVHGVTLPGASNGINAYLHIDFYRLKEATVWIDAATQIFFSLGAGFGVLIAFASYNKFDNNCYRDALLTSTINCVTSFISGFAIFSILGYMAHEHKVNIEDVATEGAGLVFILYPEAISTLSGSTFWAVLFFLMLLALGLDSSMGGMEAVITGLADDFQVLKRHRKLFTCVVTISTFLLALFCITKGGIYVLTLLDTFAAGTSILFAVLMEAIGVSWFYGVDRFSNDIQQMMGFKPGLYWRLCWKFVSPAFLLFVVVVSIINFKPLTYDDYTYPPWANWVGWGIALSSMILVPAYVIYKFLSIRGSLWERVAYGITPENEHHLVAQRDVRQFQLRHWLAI
Sequence of DAT (Q61327 whole entry): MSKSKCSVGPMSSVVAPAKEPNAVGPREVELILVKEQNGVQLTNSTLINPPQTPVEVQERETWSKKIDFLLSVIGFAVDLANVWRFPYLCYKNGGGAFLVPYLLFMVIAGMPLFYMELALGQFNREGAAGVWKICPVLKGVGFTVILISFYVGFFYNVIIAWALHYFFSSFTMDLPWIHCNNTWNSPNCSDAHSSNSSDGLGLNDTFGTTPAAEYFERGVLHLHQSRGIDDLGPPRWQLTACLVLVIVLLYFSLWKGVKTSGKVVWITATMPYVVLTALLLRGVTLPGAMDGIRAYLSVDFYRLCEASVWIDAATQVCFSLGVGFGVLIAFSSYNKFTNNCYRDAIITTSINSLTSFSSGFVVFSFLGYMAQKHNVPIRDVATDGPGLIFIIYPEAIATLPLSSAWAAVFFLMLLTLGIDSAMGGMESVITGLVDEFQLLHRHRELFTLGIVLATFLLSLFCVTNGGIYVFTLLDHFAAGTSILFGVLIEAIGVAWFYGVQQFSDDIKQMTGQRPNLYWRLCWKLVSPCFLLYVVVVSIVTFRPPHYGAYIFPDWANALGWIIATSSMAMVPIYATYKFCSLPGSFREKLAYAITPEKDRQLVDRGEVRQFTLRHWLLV
Sequence of Mu (μ) opioid receptor (A0ACM8Q262 1-400): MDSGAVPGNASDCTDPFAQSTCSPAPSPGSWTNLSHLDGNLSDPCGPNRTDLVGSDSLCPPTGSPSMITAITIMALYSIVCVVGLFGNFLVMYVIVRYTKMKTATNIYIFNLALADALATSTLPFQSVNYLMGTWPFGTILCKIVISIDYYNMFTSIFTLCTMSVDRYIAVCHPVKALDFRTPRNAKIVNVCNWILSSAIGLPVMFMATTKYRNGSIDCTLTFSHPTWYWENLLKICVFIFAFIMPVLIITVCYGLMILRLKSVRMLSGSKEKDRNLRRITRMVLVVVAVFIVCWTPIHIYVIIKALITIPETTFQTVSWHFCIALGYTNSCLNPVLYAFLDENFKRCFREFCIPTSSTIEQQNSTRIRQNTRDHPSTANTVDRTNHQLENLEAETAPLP
Sequence of Delta (δ) opioid receptor (P32300 whole entry): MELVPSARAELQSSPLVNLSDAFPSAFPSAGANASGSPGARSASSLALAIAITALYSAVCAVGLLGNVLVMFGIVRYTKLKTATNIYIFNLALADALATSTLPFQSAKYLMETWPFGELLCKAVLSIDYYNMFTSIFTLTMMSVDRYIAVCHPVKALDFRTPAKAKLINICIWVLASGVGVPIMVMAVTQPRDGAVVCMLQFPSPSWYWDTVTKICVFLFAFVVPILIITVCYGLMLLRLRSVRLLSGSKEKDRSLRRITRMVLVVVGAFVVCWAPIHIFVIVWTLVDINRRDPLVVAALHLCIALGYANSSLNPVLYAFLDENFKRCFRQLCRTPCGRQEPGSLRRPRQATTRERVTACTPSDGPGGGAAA
Sequence of Kappa (κ) opioid receptor (P41144 whole entry): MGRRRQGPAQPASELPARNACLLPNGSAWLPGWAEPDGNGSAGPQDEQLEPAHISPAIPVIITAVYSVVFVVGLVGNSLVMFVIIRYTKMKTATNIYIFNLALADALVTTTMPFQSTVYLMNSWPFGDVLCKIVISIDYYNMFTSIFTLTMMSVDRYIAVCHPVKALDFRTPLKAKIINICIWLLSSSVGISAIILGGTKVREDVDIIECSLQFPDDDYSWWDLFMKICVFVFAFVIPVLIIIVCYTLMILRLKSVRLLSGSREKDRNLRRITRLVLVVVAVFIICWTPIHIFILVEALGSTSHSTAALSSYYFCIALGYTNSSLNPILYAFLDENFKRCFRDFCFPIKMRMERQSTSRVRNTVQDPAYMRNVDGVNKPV

**Q.** Which “Hill (nH)” value ([1]; means ± SEM (n = 3 – 6)) does the source give for `CC(C)=CCN1CC[C@]2(C)c3cc(O)ccc3C[C@H]1[C@H]2C` [(+)-Pentazocine, (+)-pentazocine] here?
**A.** 0.9 ± 0.1

**Q.** Which “inhibition of [125I]-E-IA-DM-PE-PIPZE uptake” value (σ1 receptors [2]) does the source give for `COC(=O)[C@H]1[C@@H](OC(=O)c2ccccc2)C[C@@H]2CC[C@H]1N2C` [(−)-cocaine] here?
**A.** 50%

**Q.** What does the source list for `CN1CCN(CCc2ccc(Cl)c(Cl)c2)CC1` [BD1063]?
**A.** IC50 [1, 8]: 13.6 ± 0.7 nM; Ki [1, 9]: 9.6 ± 0.5 nM; Hill (nH) ([1]; means ± SEM (n = 3 – 6)): 1.3 ± 0.1; adverse effects or abnormal behaviors (σ1 receptors [3]; 2.5 μmol / kg i.v.): No adverse effects or abnormal behaviors; radioactivity in the blood after pretreatment (σ1 receptors [3]; 60 min, blocker 2.5 μmol / kg i.v.): 0.76 ± 0.04 %ID / g

**Q.** With `COc1cc2c(cc1OC)CN(CCCCNC(=O)c1cc(Br)cc(OC)c1OC)CC2` [Br-Mach, reference compound] as the compound, how does the IC50 [1, 8] read?
**A.** 9850 ± 807 nM

**Q.** What about the Ki [1, 9] of the same compound?
**A.** 6390 ± 524 nM

**Q.** What about the “Hill (nH)” value ([1]; means ± SEM (n = 3 – 6)) of the same compound?
**A.** 1.1 ± 0.2

**Q.** And the “decrease of radioligand uptake in brain” value (σ1 receptors [3]; 2.5 μmol / kg i.v., 60 min)?
**A.** 14%

**Q.** What about the “decrease of radioligand uptake in heart” value (σ1 receptors [3]; 2.5 μmol / kg i.v., 60 min) of the same compound?
**A.** 15%

**Q.** What about the “decrease of radioligand uptake in muscle” value (σ1 receptors [3]; 2.5 μmol / kg i.v., 60 min) of the same compound?
**A.** 24%

**Q.** And the “inhibition of radioligand uptake in spleen, kidney, lung or liver” value (σ1 receptors [3]; 2.5 μmol / kg i.v., 60 min)?
**A.** did not inhibit

**Q.** What about the “adverse effects or abnormal behaviors” value (σ1 receptors [3]; 2.5 μmol / kg i.v.) of the same compound?
**A.** No adverse effects or abnormal behaviors

**Q.** What about the “reduction of radioligand uptake across brain regions” value (σ1 receptors [4]) of the same compound?
**A.** minimal but statistically significant

**Q.** Which IC50 [1] does the source give for `Cc1ccccc1NC(=N)Nc1ccccc1C` [DTG, ditolylguanidine] here?
**A.** 209 ± 14 nM

**Q.** And the Ki [1]?
**A.** 114 ± 7 nM

**Q.** And the “Hill (nH)” value ([1]; means ± SEM (n = 3 – 6))?
**A.** 1.0 ± 0.1

**Q.** For `I/C=C/CN1CCN(CCc2ccc3c(c2)CCO3)CC1` [E-IA-BF-PE-PIPZE, (E)-1-(2-(2,3-dihydrobenzofuran-5-yl)ethyl)-4-(iodoallyl)piperazine], which IC50 (SERT) is on record?
**A.** > 10000 nM

**Q.** What about the inhibition at 10 µM (SERT; read-out: inhibition of specific radioligand binding, SERT) of the same compound?
**A.** ≤ 50%

**Q.** And the IC50 (NET)?
**A.** > 10000 nM

**Q.** What about the inhibition at 10 µM (NET; read-out: inhibition of specific radioligand binding, NET) of the same compound?
**A.** ≤ 50%

**Q.** What about the IC50 [5] of the same compound?
**A.** > 5000 nM

**Q.** And the inhibition at 5 µM ([5]; read-out: inhibition of specific radioligand binding, κ)?
**A.** ≤ 50%

**Q.** And the IC50 [6]?
**A.** > 5000 nM

**Q.** And the inhibition at 5 µM ([6]; read-out: inhibition of specific radioligand binding, δ)?
**A.** ≤ 50%

**Q.** And the Ki (σ2 receptors)?
**A.** 74.5 ± 4.44 nM

**Q.** What about the IC50 (Mu (μ) opioid receptor; read-out: IC50 Mu, [3H]-DAMGO 0.6 nM, guinea pig membranes) of the same compound?
**A.** > 5000 nM

**Q.** And the inhibition at 5 µM (Mu (μ) opioid receptor; read-out: inhibition of specific radioligand binding, μ)?
**A.** ≤ 50%

**Q.** And the IC50 [1]?
**A.** 1.7 ± 0.2 nM

**Q.** And the Ki [1]?
**A.** 1.1 ± 0.1 nM

**Q.** What about the “Hill (nH)” value ([1]; means ± SEM (n = 3 – 6)) of the same compound?
**A.** 1.0 ± 0.1

**Q.** And the IC50 (DAT)?
**A.** > 10000 nM

**Q.** What about the inhibition at 10 µM (DAT; read-out: inhibition of specific radioligand binding, DAT) of the same compound?
**A.** ≤ 50%

**Q.** And the “adverse effects or abnormal behaviors” value (σ1 receptors [3]; 2.5 μmol / kg i.v.)?
**A.** No adverse effects or abnormal behaviors

**Q.** What about the “reduction of radioligand uptake across brain regions” value (σ1 receptors [4]) of the same compound?
**A.** over 92%

**Q.** What about the Ki (σ1 receptors [7]) of the same compound?
**A.** 0.43 ± 0.03 nM

**Q.** And the Hill slope (σ1 receptors [7]; [3H]-PTZ competition)?
**A.** −1.23 ± 0.04

**Q.** What about the “Selectivity: σ2/σ1 (Ki ratio)” value (σ1 receptors [7]; σ2 Ki / σ1 Ki) of the same compound?
**A.** 173
